Laboratory results from ChEMBL document CHEMBL1152560, “Substituted 2-arylbenzothiazoles as kinase inhibitors: hit-to-lead optimization” (Bioorg Med Chem, 2009).

Columns and labels:
[1] = target: Macrophage-stimulating protein receptor (Homo sapiens) (UniProt Q04912); test: Residual activity of RON at 10 uM by microplate scintillation counting
[2] = target: T1, Serine/threonine-protein kinase Sgk2 (Homo sapiens) (UniProt Q9HBY8); test: Residual activity of SGK2 at 10 uM by microplate scintillation counting
T1 sequence (whole entry): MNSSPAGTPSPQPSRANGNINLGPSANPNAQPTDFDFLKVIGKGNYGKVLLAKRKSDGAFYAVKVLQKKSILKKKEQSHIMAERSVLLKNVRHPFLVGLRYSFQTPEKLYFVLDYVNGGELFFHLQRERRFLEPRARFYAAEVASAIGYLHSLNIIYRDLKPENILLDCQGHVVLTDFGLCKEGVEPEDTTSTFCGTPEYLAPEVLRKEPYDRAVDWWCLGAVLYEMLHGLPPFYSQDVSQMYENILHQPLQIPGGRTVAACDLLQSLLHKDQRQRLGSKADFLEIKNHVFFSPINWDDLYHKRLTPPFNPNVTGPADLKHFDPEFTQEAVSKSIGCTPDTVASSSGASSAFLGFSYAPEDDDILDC

[3] = target: Receptor tyrosine-protein kinase erbB-4 (Homo sapiens) (UniProt Q15303); test: Residual activity of ERBB4 at 0.1 uM by microplate scintillation counting
[4] = target: Focal adhesion kinase 1 (Homo sapiens) (UniProt Q05397); test: Residual activity of FAK at 10 uM by microplate scintillation counting
[5] = target: Calcium/calmodulin-dependent protein kinase type II subunit alpha (Homo sapiens) (UniProt Q9UQM7); test: Residual activity of CAMK2A at 0.1 uM by microplate scintillation counting
[6] = target: T2, Protein kinase C zeta type (Homo sapiens) (UniProt Q05513); test: Residual activity of PKCzeta at 0.1 uM by microplate scintillation counting
T2 sequence (whole entry): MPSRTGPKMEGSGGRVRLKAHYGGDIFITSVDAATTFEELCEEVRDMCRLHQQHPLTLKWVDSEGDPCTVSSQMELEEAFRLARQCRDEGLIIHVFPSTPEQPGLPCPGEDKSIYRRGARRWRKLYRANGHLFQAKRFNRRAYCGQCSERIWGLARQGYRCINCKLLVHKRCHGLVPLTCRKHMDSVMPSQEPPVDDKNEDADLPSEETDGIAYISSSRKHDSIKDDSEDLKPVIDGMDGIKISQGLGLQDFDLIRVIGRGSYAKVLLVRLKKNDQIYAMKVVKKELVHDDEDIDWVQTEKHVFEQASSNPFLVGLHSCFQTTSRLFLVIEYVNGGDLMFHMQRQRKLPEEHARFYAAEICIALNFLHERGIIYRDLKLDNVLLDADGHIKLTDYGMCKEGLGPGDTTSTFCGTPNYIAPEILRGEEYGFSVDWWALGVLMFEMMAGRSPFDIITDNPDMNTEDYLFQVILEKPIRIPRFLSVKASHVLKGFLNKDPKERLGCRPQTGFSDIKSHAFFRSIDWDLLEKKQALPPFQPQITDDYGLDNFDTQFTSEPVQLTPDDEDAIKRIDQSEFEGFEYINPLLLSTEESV

[7] = target: T3, Tyrosine-protein kinase ZAP-70 (Homo sapiens) (UniProt P43403); test: Residual activity of ZAP70 at 0.1 uM by microplate scintillation counting
T3 sequence (whole entry): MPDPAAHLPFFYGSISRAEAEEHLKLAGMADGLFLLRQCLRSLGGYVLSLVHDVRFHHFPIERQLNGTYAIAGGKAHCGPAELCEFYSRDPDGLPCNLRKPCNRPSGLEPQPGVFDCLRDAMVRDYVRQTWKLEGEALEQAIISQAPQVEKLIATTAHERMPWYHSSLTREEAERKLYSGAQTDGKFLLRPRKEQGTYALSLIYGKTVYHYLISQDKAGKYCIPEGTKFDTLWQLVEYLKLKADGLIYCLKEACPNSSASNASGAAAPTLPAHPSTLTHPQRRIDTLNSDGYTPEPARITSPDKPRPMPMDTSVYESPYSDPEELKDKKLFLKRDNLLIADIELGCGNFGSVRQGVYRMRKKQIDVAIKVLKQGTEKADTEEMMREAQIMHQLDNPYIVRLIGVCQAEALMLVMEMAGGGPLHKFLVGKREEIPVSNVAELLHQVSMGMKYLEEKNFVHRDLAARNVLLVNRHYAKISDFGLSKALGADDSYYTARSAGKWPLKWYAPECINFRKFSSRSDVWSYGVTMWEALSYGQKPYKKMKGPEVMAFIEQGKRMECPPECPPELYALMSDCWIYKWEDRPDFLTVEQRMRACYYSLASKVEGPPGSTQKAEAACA

[8] = target: Mitogen-activated protein kinase kinase kinase 14 (Homo sapiens) (UniProt Q99558); test: Residual activity of NIK at 1 uM by microplate scintillation counting
[9] = target: Cyclin-dependent kinase 16 (Homo sapiens) (UniProt Q00536); test: Residual activity of PCTAIRE1 at 10 uM by microplate scintillation counting
[10] = target: Fibroblast growth factor receptor 1 (Homo sapiens) (UniProt P11362); test: Residual activity of wild type FGF-R1 at 10 uM by microplate scintillation counting
[11] = target: T4, Muscle, skeletal receptor tyrosine-protein kinase (Homo sapiens) (UniProt O15146); test: Residual activity of MUSK at 10 uM by microplate scintillation counting
T4 sequence (whole entry): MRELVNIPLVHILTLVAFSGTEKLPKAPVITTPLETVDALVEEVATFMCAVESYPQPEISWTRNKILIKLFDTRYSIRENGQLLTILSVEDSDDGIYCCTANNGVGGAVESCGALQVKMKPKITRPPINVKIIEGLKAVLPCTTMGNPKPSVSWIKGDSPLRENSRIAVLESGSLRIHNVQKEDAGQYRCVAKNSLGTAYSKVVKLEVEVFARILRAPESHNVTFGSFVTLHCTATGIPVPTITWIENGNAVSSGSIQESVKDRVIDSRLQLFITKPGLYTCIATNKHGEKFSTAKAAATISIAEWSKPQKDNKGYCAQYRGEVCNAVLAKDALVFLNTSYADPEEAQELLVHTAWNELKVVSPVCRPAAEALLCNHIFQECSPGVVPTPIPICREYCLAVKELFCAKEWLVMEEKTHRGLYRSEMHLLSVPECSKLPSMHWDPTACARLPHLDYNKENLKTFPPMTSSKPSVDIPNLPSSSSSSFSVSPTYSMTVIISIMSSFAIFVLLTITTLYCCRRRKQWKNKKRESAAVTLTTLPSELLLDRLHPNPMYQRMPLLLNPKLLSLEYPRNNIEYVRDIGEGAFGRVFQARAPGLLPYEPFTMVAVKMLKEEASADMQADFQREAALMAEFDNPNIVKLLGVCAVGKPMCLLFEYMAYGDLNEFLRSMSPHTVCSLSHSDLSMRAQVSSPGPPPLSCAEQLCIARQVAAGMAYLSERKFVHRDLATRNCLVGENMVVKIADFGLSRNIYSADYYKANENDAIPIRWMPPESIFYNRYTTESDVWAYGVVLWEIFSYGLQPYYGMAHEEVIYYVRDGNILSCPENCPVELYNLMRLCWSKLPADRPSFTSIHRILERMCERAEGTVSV

Sequence of Macrophage-stimulating protein receptor (Homo sapiens) (Q04912 25-304 limits assumed): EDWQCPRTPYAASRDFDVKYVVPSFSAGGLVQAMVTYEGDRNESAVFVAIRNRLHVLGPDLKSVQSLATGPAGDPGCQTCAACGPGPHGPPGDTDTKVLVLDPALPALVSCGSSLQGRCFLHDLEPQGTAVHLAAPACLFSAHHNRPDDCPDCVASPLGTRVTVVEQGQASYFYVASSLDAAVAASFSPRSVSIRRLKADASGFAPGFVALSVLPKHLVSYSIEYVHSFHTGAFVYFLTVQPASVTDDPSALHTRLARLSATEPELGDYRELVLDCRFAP
Sequence of Macrophage-stimulating protein receptor (Homo sapiens) (Q04912 310-1400 limits assumed): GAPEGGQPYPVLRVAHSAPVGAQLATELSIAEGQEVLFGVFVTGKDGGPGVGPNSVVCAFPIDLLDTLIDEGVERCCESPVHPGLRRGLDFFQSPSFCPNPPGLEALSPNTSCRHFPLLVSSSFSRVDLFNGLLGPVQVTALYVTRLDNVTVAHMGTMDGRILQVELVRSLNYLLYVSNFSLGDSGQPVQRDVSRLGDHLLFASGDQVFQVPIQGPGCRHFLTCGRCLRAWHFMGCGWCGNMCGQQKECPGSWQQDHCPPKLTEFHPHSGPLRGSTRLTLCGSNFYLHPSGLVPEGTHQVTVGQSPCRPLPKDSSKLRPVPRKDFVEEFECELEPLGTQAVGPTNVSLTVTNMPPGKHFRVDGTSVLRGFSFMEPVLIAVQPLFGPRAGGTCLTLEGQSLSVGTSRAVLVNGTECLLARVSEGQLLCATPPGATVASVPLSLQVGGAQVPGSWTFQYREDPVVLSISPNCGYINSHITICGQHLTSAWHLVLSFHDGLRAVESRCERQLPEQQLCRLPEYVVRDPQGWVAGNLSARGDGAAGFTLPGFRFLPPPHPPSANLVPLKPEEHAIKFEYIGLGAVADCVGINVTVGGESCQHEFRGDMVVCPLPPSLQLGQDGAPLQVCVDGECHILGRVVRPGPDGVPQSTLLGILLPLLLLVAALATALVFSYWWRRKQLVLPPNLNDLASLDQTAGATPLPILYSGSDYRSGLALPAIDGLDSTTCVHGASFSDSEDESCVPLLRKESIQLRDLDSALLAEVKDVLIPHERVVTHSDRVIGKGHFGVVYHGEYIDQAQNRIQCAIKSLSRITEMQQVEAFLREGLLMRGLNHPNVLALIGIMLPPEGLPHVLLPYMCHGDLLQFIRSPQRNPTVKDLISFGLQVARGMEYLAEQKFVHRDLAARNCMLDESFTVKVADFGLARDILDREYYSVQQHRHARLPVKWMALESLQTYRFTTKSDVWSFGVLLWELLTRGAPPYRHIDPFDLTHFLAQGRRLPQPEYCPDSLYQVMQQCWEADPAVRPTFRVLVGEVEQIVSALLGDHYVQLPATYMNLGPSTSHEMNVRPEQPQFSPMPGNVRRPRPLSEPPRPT
Sequence of Cyclin-dependent kinase 16 (Homo sapiens) (Q00536 whole entry): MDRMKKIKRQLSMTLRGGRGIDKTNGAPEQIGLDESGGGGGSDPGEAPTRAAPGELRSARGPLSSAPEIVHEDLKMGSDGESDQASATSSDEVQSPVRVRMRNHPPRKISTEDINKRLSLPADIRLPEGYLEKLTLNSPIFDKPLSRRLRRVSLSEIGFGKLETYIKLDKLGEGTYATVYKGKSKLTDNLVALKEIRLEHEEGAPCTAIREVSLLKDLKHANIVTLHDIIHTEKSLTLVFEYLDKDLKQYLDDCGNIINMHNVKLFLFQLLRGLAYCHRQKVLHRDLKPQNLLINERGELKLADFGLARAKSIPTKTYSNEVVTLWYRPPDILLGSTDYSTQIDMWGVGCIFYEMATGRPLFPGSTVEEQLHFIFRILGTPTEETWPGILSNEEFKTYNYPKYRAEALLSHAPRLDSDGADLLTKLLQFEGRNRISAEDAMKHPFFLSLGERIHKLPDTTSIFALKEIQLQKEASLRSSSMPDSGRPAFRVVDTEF
Sequence of Receptor tyrosine-protein kinase erbB-4 (Homo sapiens) (Q15303 whole entry): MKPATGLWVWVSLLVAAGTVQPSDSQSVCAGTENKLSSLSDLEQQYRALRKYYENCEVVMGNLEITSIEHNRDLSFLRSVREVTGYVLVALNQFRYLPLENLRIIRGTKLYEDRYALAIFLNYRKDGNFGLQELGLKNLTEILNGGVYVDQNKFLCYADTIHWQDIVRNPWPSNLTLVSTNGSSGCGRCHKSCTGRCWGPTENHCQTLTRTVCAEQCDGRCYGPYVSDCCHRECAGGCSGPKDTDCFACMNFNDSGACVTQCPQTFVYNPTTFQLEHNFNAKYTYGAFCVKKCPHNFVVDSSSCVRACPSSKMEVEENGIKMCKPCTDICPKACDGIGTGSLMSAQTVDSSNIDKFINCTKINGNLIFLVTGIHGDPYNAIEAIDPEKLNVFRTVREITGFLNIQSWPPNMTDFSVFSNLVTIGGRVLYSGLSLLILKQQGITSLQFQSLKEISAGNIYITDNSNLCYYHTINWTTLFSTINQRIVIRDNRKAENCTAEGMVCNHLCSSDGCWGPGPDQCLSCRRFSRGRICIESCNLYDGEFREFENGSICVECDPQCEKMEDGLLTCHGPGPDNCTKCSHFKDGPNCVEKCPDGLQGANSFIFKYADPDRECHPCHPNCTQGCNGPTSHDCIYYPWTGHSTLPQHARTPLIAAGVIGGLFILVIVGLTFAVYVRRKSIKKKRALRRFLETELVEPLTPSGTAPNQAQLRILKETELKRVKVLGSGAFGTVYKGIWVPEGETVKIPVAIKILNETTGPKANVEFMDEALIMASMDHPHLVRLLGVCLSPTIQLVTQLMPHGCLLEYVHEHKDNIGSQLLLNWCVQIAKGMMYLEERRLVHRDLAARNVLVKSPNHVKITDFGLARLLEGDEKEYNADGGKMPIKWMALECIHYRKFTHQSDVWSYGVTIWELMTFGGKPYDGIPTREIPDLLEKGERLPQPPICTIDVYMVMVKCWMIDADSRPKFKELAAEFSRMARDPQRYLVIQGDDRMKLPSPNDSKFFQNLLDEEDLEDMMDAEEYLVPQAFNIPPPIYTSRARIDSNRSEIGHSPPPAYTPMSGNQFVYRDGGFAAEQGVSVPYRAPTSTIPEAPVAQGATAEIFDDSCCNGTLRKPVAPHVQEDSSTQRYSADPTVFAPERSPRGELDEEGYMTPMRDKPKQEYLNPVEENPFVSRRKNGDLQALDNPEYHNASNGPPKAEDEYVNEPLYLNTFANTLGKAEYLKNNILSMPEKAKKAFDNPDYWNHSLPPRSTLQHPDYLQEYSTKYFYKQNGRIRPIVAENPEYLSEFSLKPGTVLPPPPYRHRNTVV
Sequence of Fibroblast growth factor receptor 1 (Homo sapiens) (P11362 22-822 limits assumed): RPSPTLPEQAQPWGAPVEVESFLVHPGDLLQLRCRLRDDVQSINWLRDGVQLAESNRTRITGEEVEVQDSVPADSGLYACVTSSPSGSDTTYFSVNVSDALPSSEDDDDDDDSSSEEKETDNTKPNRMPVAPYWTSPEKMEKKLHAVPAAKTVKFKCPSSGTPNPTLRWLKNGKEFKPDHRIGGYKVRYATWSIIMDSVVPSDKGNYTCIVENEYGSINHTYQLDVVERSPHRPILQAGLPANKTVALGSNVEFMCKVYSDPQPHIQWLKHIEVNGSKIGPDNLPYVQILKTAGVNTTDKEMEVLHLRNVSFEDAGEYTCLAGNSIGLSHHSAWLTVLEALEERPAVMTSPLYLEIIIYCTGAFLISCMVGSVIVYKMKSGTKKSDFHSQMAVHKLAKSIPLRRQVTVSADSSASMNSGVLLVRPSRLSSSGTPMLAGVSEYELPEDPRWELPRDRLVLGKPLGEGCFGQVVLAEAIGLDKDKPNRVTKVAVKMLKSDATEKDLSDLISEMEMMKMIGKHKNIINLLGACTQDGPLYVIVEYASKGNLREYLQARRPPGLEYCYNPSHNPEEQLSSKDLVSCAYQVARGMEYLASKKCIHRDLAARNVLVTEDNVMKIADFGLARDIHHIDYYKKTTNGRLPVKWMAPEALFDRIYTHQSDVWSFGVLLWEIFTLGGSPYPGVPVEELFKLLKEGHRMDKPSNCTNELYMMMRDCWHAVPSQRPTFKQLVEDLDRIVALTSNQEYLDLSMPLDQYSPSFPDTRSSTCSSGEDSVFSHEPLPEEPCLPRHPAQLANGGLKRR
Sequence of Focal adhesion kinase 1 (Homo sapiens) (Q05397 2-1052 limits assumed): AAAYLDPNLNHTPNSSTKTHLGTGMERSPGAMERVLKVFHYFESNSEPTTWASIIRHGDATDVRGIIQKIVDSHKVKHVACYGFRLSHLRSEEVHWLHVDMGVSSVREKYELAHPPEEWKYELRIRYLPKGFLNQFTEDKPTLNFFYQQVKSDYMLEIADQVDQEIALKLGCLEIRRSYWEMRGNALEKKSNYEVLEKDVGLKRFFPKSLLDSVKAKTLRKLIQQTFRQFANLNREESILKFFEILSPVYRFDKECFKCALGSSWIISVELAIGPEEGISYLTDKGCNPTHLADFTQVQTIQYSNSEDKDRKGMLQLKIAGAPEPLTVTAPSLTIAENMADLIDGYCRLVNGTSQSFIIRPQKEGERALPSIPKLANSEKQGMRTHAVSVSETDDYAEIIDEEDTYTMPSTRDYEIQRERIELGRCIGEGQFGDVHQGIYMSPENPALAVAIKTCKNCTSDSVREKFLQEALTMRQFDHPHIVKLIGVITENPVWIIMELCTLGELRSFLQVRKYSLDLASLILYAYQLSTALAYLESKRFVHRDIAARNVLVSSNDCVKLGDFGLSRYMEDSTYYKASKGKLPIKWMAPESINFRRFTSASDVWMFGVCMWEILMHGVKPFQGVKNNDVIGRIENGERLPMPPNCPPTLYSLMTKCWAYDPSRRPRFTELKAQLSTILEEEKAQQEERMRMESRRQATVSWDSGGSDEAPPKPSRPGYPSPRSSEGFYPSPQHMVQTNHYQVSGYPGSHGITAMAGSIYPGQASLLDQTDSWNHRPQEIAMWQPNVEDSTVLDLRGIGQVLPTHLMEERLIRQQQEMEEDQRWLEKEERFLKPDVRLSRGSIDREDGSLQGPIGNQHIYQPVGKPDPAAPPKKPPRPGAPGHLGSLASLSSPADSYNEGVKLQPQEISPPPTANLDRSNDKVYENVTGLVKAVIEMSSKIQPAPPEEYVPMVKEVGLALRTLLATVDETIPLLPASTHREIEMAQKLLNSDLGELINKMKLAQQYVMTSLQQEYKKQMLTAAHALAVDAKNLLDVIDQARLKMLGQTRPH

| SMILES | residual activity [1] [%] | residual activity [2] [%] | residual activity [3] [%] | residual activity [4] [%] | residual activity [5] [%] | residual activity [6] [%] | residual activity [7] [%] | residual activity [8] [%] | residual activity [9] [%] | residual activity [10] [%] | residual activity [11] [%] |
| --- | --- | --- | --- | --- | --- | --- | --- | --- | --- | --- | --- |
| COc1cc2c(Oc3ccc(-c4nc5ccccc5s4)cc3F)ncnc2cc1OCCCN1CCN(C)CC1 | 55 | 111 | 100 | 84 | 91 | 97 | 108 | 88 | 153 | 47 | 41 |
| COc1cc2c(Oc3ccc(-c4nc5ccccc5s4)cc3)ncnc2cc1OCCCN1CCCC1 | 53 | 88 | 102 | 93 | 85 | 107 | 111 | 93 | 126 | 124 | 46 |
| COc1cc2c(Oc3ccc(-c4nc5ccccc5s4)cc3)ncnc2cc1OCCCN1CCN(C)CC1 | 76 | 101 | 87 | 93 | 80 | 85 | 112 | 85 | 163 | 157 | 44 |
